The source of these data is PubChem BioAssay (NCI).

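Dose response: 5 concentrations. Exposure: 48 h. Format: 96-well plates. Endpoint: linear interpolation; highest concentration if not reached. Abbreviation: GI50, concentration required for 50% inhibition of growth. At the TGI there is no net growth.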

Among the test systems are SN12C renal; DU-145 prostate; HOP-92 NSCLC; OVCAR-4 ovarian; SNB-19 CNS; 786-0 renal; A549 NSCLC; HL-60(TB) leukemia; U251 CNS; ACHN renal.
What all share (assay): inhibition of tumour cell growth, NCI panel, 48 h

Consider `Cn1ncc2cc(-c3cnc(N)c(Cl)c3N3CCC4(CCNC4=O)CC3)ccc21`, for which the GI50 in the assay with SN12C renal was 32.7 µM; in the assay with DU-145 prostate it was 52.1 µM; in the assay with HOP-92 NSCLC, 13 µM; in the assay with OVCAR-4 ovarian, 38.9 µM; with SNB-19 CNS it was 94.2 µM; in the assay on 786-0 renal, 11.2 µM. For the same compound, the GI50 was more than 100 µM with A549 NSCLC, 16.8 µM in the assay with HL-60(TB) leukemia and 43.7 µM with U251 CNS. Besides, the TGI in the assay with SN12C renal is more than 100 µM; with DU-145 prostate, more than 100 µM; in the assay on HOP-92 NSCLC, 82.4 µM; with OVCAR-4 ovarian, more than 100 µM; with SNB-19 CNS, more than 100 µM; with 786-0 renal, more than 100 µM. The TGI in the assay with A549 NSCLC was more than 100 µM; in the assay on HL-60(TB) leukemia, 42.6 µM; in the assay on U251 CNS, more than 100 µM.

As for `C[C@]12CC[C@H](O)CC1=CC[C@@H]1[C@@H]2CC[C@]2(C)C(=O)/C(=C/c3cccc(OCCCn4ccnc4)c3)C[C@@H]12`, the GI50 in the assay on ACHN renal was 16.7 µM; with SN12C renal, 28.7 µM; in the assay on DU-145 prostate, 19.9 µM; with HOP-92 NSCLC, 12.6 µM; in the assay with OVCAR-4 ovarian, 19.6 µM; in the assay with SNB-19 CNS, 27 µM. In addition, the GI50 is 23.2 µM in the assay on 786-0 renal, 13.8 µM in the assay on A549 NSCLC, 13.8 µM in the assay with HL-60(TB) leukemia and 24.8 µM with U251 CNS. In addition, the TGI in the assay with ACHN renal came out at 38.6 µM; with SN12C renal it was 88.3 µM; in the assay on DU-145 prostate, 38.7 µM; in the assay on HOP-92 NSCLC it was 32.3 µM; with OVCAR-4 ovarian it was 64.6 µM; with SNB-19 CNS, 77.3 µM. The TGI in the assay on 786-0 renal came to 47.2 µM; with A549 NSCLC, 28.8 µM; with HL-60(TB) leukemia, 44.7 µM; in the assay on U251 CNS, 77.3 µM.

In the case of `CO/N=C(\c1ccccc1)c1cnn(-c2ccccc2)c1N`, the GI50 in the assay on ACHN renal is more than 25 µM; in the assay on SN12C renal, more than 25 µM; in the assay on DU-145 prostate it was more than 25 µM; in the assay on HOP-92 NSCLC, more than 12.4 µM; in the assay with OVCAR-4 ovarian it was more than 25 µM; with SNB-19 CNS it was more than 25 µM. The GI50 with 786-0 renal, in the assay with A549 NSCLC, in the assay with HL-60(TB) leukemia and in the assay on U251 CNS was more than 25 µM throughout. For the same compound, the TGI in the assay with ACHN renal, in the assay with SN12C renal, in the assay with DU-145 prostate, in the assay on HOP-92 NSCLC, in the assay with OVCAR-4 ovarian and with SNB-19 CNS was more than 25 µM in each case. Moreover, the TGI in the assay with 786-0 renal, in the assay with A549 NSCLC, in the assay with HL-60(TB) leukemia and in the assay with U251 CNS was more than 25 µM throughout.

Consider `O=C1OCC(c2ccc(O)c(O)c2)=C1c1cc(O)c(O)c(O)c1`, for which the GI50 with ACHN renal was 33.3 µM; in the assay on SN12C renal it was 15.8 µM; with DU-145 prostate, 32.7 µM; in the assay with HOP-92 NSCLC, 2.76 µM; in the assay on OVCAR-4 ovarian it was 26.2 µM; with SNB-19 CNS, 25.3 µM. Further, the values for the GI50 in the assay with 786-0 renal, in the assay with A549 NSCLC and in the assay on U251 CNS were 18.1 µM, 21.6 µM and 17.9 µM, respectively. In addition, the TGI in the assay with ACHN renal is more than 100 µM; in the assay on SN12C renal, 29.6 µM; in the assay on DU-145 prostate it was more than 100 µM; in the assay with HOP-92 NSCLC, 18.2 µM; with OVCAR-4 ovarian, 70.1 µM; with SNB-19 CNS, more than 100 µM. Besides, the results for the TGI in the assay on 786-0 renal, in the assay with A549 NSCLC and in the assay on U251 CNS were 32.7 µM, 76 µM and 32.7 µM, respectively.

On to `CS(=O)(=O)c1nccc(-c2c(-c3cccc(OCc4ccc(F)cc4)c3)nc3sccn23)n1`, for which the GI50 was 50.1 µM in the assay on ACHN renal; more than 56.6 µM in the assay with SN12C renal; 1.92 µM with DU-145 prostate; 11.1 µM in the assay with HOP-92 NSCLC; 11.4 µM with OVCAR-4 ovarian; 26 µM with SNB-19 CNS. Moreover, the GI50 in the assay on 786-0 renal was 16.8 µM; in the assay on A549 NSCLC it was more than 81.8 µM; in the assay on HL-60(TB) leukemia it was 3.43 µM; in the assay with U251 CNS, 33.1 µM. Besides, the TGI is more than 100 µM in the assay on ACHN renal; more than 100 µM in the assay on SN12C renal; 3.41 µM in the assay on DU-145 prostate; more than 100 µM with HOP-92 NSCLC; more than 100 µM in the assay on OVCAR-4 ovarian; more than 96.7 µM with SNB-19 CNS. Moreover, the TGI was more than 100 µM with 786-0 renal, more than 100 µM in the assay on A549 NSCLC, more than 29.3 µM with HL-60(TB) leukemia and more than 100 µM in the assay with U251 CNS.

With `CC(C)C1CN1CC(O)Cn1ccnc1[N+](=O)[O-]` (stereo unspecified), the TGI with ACHN renal, with SN12C renal, with DU-145 prostate, in the assay with OVCAR-4 ovarian, with SNB-19 CNS and in the assay on 786-0 renal was more than 100 µM each time. For the same compound, the TGI in the assay with A549 NSCLC and in the assay on U251 CNS was more than 100 µM in each case.

On to `C=C1C(=O)O[C@H]2[C@H]1CC/C(COC(=O)OCCCCCOC(=O)OC/C1=C/CC[C@@]3(C)O[C@H]3[C@H]3OC(=O)C(=C)[C@@H]3CC1)=C\CC[C@@]1(C)O[C@@H]21`, for which the GI50 in the assay with ACHN renal was 0.176 µM; in the assay on DU-145 prostate it was 1.04 µM; in the assay on HOP-92 NSCLC, 1.26 µM; with OVCAR-4 ovarian, 0.683 µM; in the assay on SNB-19 CNS, 2.1 µM; in the assay with 786-0 renal, 0.266 µM. Also, the GI50 in the assay with A549 NSCLC was 2.63 µM; with HL-60(TB) leukemia it was 0.281 µM; in the assay with U251 CNS, 1.31 µM. Besides, the TGI was found to be 0.341 µM in the assay on ACHN renal; 2.3 µM in the assay with DU-145 prostate; 2.94 µM with HOP-92 NSCLC; 2.15 µM in the assay with OVCAR-4 ovarian; 7.71 µM with SNB-19 CNS; 0.93 µM in the assay with 786-0 renal. The TGI stood at 7.42 µM with A549 NSCLC, 0.793 µM in the assay on HL-60(TB) leukemia and 2.82 µM in the assay with U251 CNS.

As for `Cc1c(Cl)ccc2c1NC(=O)C2(O)CC(=O)c1ccc(Cl)cc1Cl` (stereo unspecified), the TGI with ACHN renal, in the assay on SN12C renal, in the assay on DU-145 prostate, in the assay on HOP-92 NSCLC, in the assay with OVCAR-4 ovarian and in the assay with SNB-19 CNS was more than 50 µM throughout. Further, the TGI with 786-0 renal, in the assay with A549 NSCLC and with U251 CNS was more than 50 µM each time.
